From patent US9073855B2, “BCL-2 selective apoptosis-inducing agents for the treatment of cancer and immune diseases” (AbbVie Inc., priority 2008, dated 2015)

Assays:
GST-Bcl-2 = GST-Bcl-2 (Homo sapiens, UniProt P10415); assay: TR-FRET binding assay, GST-Bcl-2 with F-Bak peptide probe; conditions: for Ki: TR-FRET Binding Affinity; for Binding selectivity ratio (Bcl-XL Ki/Bcl-2 Ki): TR-FRET, Bcl-XL Ki divided by Bcl-2 Ki
Outline: (§1)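 Compounds were serially diluted in DMSO from a 50 μM starting solution (2× the starting concentration; 10% DMSO). Plates were incubated for 3 h at room temperature, and TR-FRET was read with 340/35 nm excitation and emission at 520/525 nm (F-Bak) and 495/510 nm (Tb antibody). Ki values were calculated using Wang's competitive-binding equation.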

GST-Bcl-XL = GST-Bcl-XL (Homo sapiens, UniProt Q07817); assay: TR-FRET binding assay, GST-Bcl-XL with F-Bak peptide probe; conditions: TR-FRET Binding Affinity
Sequence of GST-Bcl-XL (Q07817 whole entry): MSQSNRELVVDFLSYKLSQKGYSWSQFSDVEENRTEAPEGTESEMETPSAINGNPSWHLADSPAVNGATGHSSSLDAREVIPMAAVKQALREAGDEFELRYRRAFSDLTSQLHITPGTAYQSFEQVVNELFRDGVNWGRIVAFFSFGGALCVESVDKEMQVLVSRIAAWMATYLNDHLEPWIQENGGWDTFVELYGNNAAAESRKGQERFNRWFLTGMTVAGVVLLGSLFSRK
Outline: as §1

[1] = GST-Bcl-XL, F-Bak peptide probe

Sequence of GST-Bcl-2 (P10415 whole entry): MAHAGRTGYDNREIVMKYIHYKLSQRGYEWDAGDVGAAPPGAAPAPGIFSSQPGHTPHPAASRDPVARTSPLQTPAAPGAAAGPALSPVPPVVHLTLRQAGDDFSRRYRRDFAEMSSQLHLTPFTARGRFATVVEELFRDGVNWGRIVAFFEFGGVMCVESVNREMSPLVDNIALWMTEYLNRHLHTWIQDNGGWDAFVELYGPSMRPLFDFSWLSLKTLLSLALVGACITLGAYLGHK

In the case of CC1(C)CCC(CN2CCN(c3ccc(C(=O)NS(=O)(=O)c4cnc(OCC5(O)CCC(F)(F)CC5)c(Cl)c4)c(Oc4cccc5[nH]ncc45)c3)CC2)=C(c2ccc(Cl)cc2)C1 [Example 490, N-({5-chloro-6-[(4,4-difluoro-1-hydroxycyclohexyl)methoxy]pyridin-3-yl}sulfonyl)-4-(4-{[2-(4-chlorophenyl)-4,4-dimethylcyclohex-1-en-1-yl]methyl}piperazin-1-yl)-2-(1H-indazol-4-yloxy)benzamide], the Ki (GST-Bcl-2) is reported as 1.14 nM, the “Binding selectivity ratio (Bcl-XL Ki/Bcl-2 Ki)” value (from here on “Binding selectivity ratio”) (GST-Bcl-2) is reported as 92.7 and the Ki (GST-Bcl-XL) is reported as 106 nM.
Molecule CC1(C)CCC(CN2CCN(c3ccc(C(=O)NS(=O)(=O)c4ccc(NC5(CO)CCOCC5)c([N+](=O)[O-])c4)c(Oc4cccc5[nH]ccc45)c3)CC2)=C(c2ccc(Cl)cc2)C1 [Example 241, 4-(4-{[2-(4-chlorophenyl)-4,4-dimethylcyclohex-1-en-1-yl]methyl}piperazin-1-yl)-N-[(4-{[4-(hydroxymethyl)tetrahydro-2H-pyran-4-yl]amino}-3-nitrophenyl)sulfonyl]-2-(1H-indol-4-yloxy)benzamide] has a Ki (GST-Bcl-2; GST-Bcl-2, F-Bak peptide probe) of 6.09 nM and a Ki (GST-Bcl-XL; [1]) greater than 660 nM.
CC1(C)CCC(CN2CCN(c3ccc(C(=O)NS(=O)(=O)c4ccc(OCC5(F)CCN(C6COC6)CC5)c(Cl)c4)c(Oc4cccc5[nH]ncc45)c3)CC2)=C(c2ccc(Cl)cc2)C1 [Example 517, N-[(3-chloro-4-{[4-fluoro-1-(oxetan-3-yl)piperidin-4-yl]methoxy}phenyl)sulfonyl]-4-(4-{[2-(4-chlorophenyl)-4,4-dimethylcyclohex-1-en-1-yl]methyl}piperazin-1-yl)-2-(1H-indazol-4-yloxy)benzamide] was tested, and the Ki (GST-Bcl-2) was less than 0.01 nM, the “Binding selectivity ratio” value (GST-Bcl-2) was greater than 607.7 and the Ki (GST-Bcl-XL) was 6.08 nM.
CC1(C)CCC(CN2CCN(c3ccc(C(=O)NS(=O)(=O)c4ccc(OCC5CCOCC5)c(Cl)c4)c(Oc4cccc5[nH]ncc45)c3)CC2)=C(c2ccc(Cl)cc2)C1 [Example 498, 4-(4-{[2-(4-chlorophenyl)-4,4-dimethylcyclohex-1-en-1-yl]methyl}piperazin-1-yl)-N-{[3-chloro-4-(tetrahydro-2H-pyran-4-ylmethoxy)phenyl]sulfonyl}-2-(1H-indazol-4-yloxy)benzamide] was tested, and the Ki (GST-Bcl-2) was less than 0.01 nM, the “Binding selectivity ratio” value (GST-Bcl-2) was greater than 12491.0 and the Ki (GST-Bcl-XL) was 125 nM.
With CC1(O)CCC(COc2ncc(S(=O)(=O)NC(=O)c3ccc(N4CCN(CC5=C(c6ccc(Cl)cc6)CCC(F)(F)C5)CC4)cc3Oc3cccc4[nH]ncc34)cc2Cl)CC1 (stereo not drawn) [Example 531, N-({5-chloro-6-[(trans-4-hydroxy-4-methylcyclohexyl)methoxy]pyridin-3-yl}sulfonyl)-4-(4-{[2-(4-chlorophenyl)-5,5-difluorocyclohex-1-en-1-yl]methyl}piperazin-1-yl)-2-(1H-indazol-4-yloxy)benzamide] the Ki (GST-Bcl-2) was less than 0.01 nM, the “Binding selectivity ratio” value (GST-Bcl-2) was greater than 1257.8 and the Ki (GST-Bcl-XL) was 12.6 nM.
For CC1(C)CCC(CN2CCN(c3ccc(C(=O)NS(=O)(=O)c4cnc(OCC5(F)CCOCC5)c(F)c4)c(Oc4cccc5[nH]cnc45)c3)CC2)=C(c2ccc(Cl)cc2)C1 [Example 442, 2-(1H-benzimidazol-4-yloxy)-4-(4-{[2-(4-chlorophenyl)-4,4-dimethylcyclohex-1-en-1-yl]methyl}piperazin-1-yl)-N-({5-fluoro-6-[(4-fluorotetrahydro-2H-pyran-4-yl)methoxy]pyridin-3-yl}sulfonyl)benzamide], the Ki (GST-Bcl-2) was less than 0.01 nM and the Ki (GST-Bcl-XL) was 33.6 nM.
For CC1(C)CCC(CN2CCN(c3ccc(C(=O)NS(=O)(=O)c4ccc(OCC5(F)CCOCC5)c(C(F)(F)F)c4)c(Oc4cccc5[nH]ncc45)c3)CC2)=C(c2ccc(Cl)cc2)C1 [Example 497, 4-(4-{[2-(4-chlorophenyl)-4,4-dimethylcyclohex-1-en-1-yl]methyl}piperazin-1-yl)-N-({4-[(4-fluorotetrahydro-2H-pyran-4-yl)methoxy]-3-(trifluoromethyl)phenyl}sulfonyl)-2-(1H-indazol-4-yloxy)benzamide], the Ki (GST-Bcl-2) was 0.082 nM, the “Binding selectivity ratio” value (GST-Bcl-2) was 1517.4 and the Ki (GST-Bcl-XL) was 124 nM.
For O=C(NS(=O)(=O)c1ccc(NCC2CCOCC2)c([N+](=O)[O-])c1)c1ccc(N2CCN(Cc3ccccc3-c3ccc(Cl)cc3)CC2)cc1Oc1cccc2ccccc12 [Example 34, 4-{4-[(4′-chloro-1,1′-biphenyl-2-yl)methyl]piperazin-1-yl}-2-(1-naphthyloxy)-N-({3-nitro-4-[(tetrahydro-2H-pyran-4-ylmethyl)amino]phenyl}sulfonyl)benzamide], the Ki (GST-Bcl-2; GST-Bcl-2, F-Bak peptide probe) was 1.99 nM and the Ki (GST-Bcl-XL; [1]) was 88 nM.
With CC1(C)CCC(CN2CCN(c3ccc(C(=O)NS(=O)(=O)c4cnc(OCC5CC5(F)F)c(Cl)c4)c(Oc4cccc5[nH]ncc45)c3)CC2)=C(c2ccc(Cl)cc2)C1 (centres unmarked) [Example 491, N-({5-chloro-6-[(2,2-difluorocyclopropyl)methoxy]pyridin-3-yl}sulfonyl)-4-(4-{[2-(4-chlorophenyl)-4,4-dimethylcyclohex-1-en-1-yl]methyl}piperazin-1-yl)-2-(1H-indazol-4-yloxy)benzamide] the Ki (GST-Bcl-2) was 0.017 nM, the “Binding selectivity ratio” value (GST-Bcl-2) was 4600.5 and the Ki (GST-Bcl-XL) was 77.2 nM.
With CC1(C)CCC(CN2CCN(c3ccc(C(=O)NS(=O)(=O)c4ccc(OCC5CCC(C)(O)CC5)c([N+](=O)[O-])c4)c(Oc4cccc5[nH]ncc45)c3)CC2)=C(c2ccc(Cl)cc2)C1 (stereo not drawn) [Example 533, 4-(4-{[2-(4-chlorophenyl)-4,4-dimethylcyclohex-1-en-1-yl]methyl}piperazin-1-yl)-N-({4-[(trans-4-hydroxy-4-methylcyclohexyl)methoxy]-3-nitrophenyl}sulfonyl)-2-(H-indazol-4-yloxy)benzamide] the Ki (GST-Bcl-2) was less than 0.01 nM, the “Binding selectivity ratio” value (GST-Bcl-2) was greater than 1044.3 and the Ki (GST-Bcl-XL) was 10.4 nM.
For CC1(C)CCC(CN2CCN(c3ccc(C(=O)NS(=O)(=O)c4ccc(NC[C@H]5CN(C6CC6)CCO5)c([N+](=O)[O-])c4)c(Oc4cccc5[nH]nnc45)c3)CC2)=C(c2ccc(Cl)cc2)C1 [Example 527, 2-(1H-benzotriazol-4-yloxy)-4-(4-{[2-(4-chlorophenyl)-4,4-dimethylcyclohex-1-en-1-yl]methyl}piperazin-1-yl)-N-{[4-({[(2S)-4-cyclopropylmorpholin-2-yl]methyl}amino)-3-nitrophenyl]sulfonyl}benzamide], the Ki (GST-Bcl-2) was less than 0.01 nM, the “Binding selectivity ratio” value (GST-Bcl-2) was greater than 421.9 and the Ki (GST-Bcl-XL) was 4.22 nM.
Work on CN(C)CCOc1cccc(-c2ccc(Cl)cc2)c1CN1CCN(c2ccc(C(=O)NS(=O)(=O)c3ccc(NCC4CCOCC4)c(S(=O)(=O)C(F)(F)F)c3)c(Oc3ccccc3)c2)CC1 [Example 124, 4-[4-({4′-chloro-3-[2-(dimethylamino)ethoxy]-1,1′-biphenyl-2-yl}methyl)piperazin-1-yl]-2-phenoxy-N-({4-[(tetrahydro-2H-pyran-4-ylmethyl)amino]-3-[(trifluoromethyl)sulfonyl]phenyl}sulfonyl)benzamide] yielded a Ki (GST-Bcl-2; GST-Bcl-2, F-Bak peptide probe) of 0.335 nM and a Ki (GST-Bcl-XL; [1]) of 73.7 nM.
In the case of CC1(C)CC(c2ccc(Cl)cc2)=C(CN2CCN(c3ccc(C(=O)NS(=O)(=O)c4cnc(OCC5(F)CCOCC5)c(Cl)c4)c(Oc4cccc5[nH]ncc45)c3)CC2)CO1 [Example 465, N-({5-chloro-6-[(4-fluorotetrahydro-2H-pyran-4-yl)methoxy]pyridin-3-yl}sulfonyl)-4-(4-{[4-(4-chlorophenyl)-6,6-dimethyl-5,6-dihydro-2H-pyran-3-yl]methyl}piperazin-1-yl)-2-(1H-indazol-4-yloxy)benzamide], the Ki (GST-Bcl-2) is reported as 0.025 nM, the “Binding selectivity ratio” value (GST-Bcl-2) is reported as 1472.4 and the Ki (GST-Bcl-XL) is reported as 37.2 nM.
